From patent publication EP4768487A1, “FUSED LACTAM RING COMPOUND AND USE THEREOF” (Chengdu Zenitar Biomedical Technology Co., Ltd., priority 2023, dated 2025) come the findings set out here.

One assay deals with T1, PARP1 (Homo sapiens, UniProt P09874).
T1 construct: purchased BPS 80501
The assay can be described thus: PARP1 enzyme assay (histone-coated plate, chemiluminescence). Type of assay: biochemical. The note with it: PARP1 0.02 nM, DNA 0.8 nM, NAD+ 3.5 µM; read-out: PARP-1 IC50. On the procedure:
1.1.1. Buffer preparation: PBST: 1× PBS, 0.05% Tween-20; blocking buffer: 1× PBS, 0.05% Tween-20, 5% BSA; reaction buffer: 50 mM Tris-HCl (pH 7.5), 0.005% Tween-20, 0.01% BSA.
1.1.2. Coating: A 50 ng/mL Histone coating solution was prepared with 1× PBS and then transferred to a 384-well reaction plate at 25 µL/well. The plate was coated at 4 °C overnight.
1.1.3. Washing: After the coating was completed, the coating solution was discarded, and the plate was washed with the PBST solution. The method was as follows: PBST was transferred to the 384-well reaction plate at 50 µL/well, and the plate was left to stand for 5 min. The washing solution was then discarded, and the plate was refilled. The washing step was repeated 3 times. Finally, the reaction plate was patted dry and left for the next step of blocking.
1.1.4. Blocking: The blocking buffer was transferred to the 384-well reaction plate at 50 µL/well, and the plate was left to stand for 1 h.
Washing: After the blocking was completed, the blocking buffer was discarded, and the plate was washed 3 times with the PBST solution according to the method in step 2. Finally, the reaction plate was patted dry.
1.1.5. A 1000-fold solution of a compound was prepared and then transferred at 1 µL/well to a 96-well plate containing 199 µL of the reaction buffer. The mixture was well mixed, and then the well mixed compound solution was transferred to the 384-well reaction plate at 5 µL/well. 1.1.6. A 25/10-fold PARP1-DNA solution was prepared with the reaction buffer and then transferred to the 384-well reaction plate at 10 µL/well. For the negative control wells, 10 µL
of the DNA solution was transferred. The final concentrations of PARP1 and DNA were 0.02 nM and 0.8 nM, respectively.
1.1.9. Washing: After the reaction was completed, the reaction solution was discarded, and the plate was washed 3 times with the PBST solution according to the method in step 2. Finally, the reaction plate was patted dry.
1.1.10. A primary antibody (anti-Poly/Mono-ADP Ribose Rabbit mAb) was diluted 2000-fold with the blocking buffer and then added at 20 µL/well.
1.1.11. Washing: The primary antibody was discarded, and the plate was washed 3 times with the PBST solution according to the method in step 2. Finally, the reaction plate was patted dry.
1.1.12. A secondary antibody (anti-rabbit IgG, HRP-linked Antibody) was diluted 2000-fold with the blocking buffer and then added at 20 µL/well.
1.1.13. Washing: The secondary antibody was discarded, and the plate was washed 3 times with the PBST solution according to the method in step 2. Finally, the reaction plate was patted dry.
1.1.14. Color development: Femto-ECL Substrate A and Femto-ECL Substrate B were mixed at a ratio of 1:1, and the mixture was transferred to the 384-well reaction plate at 25 µL/well. 1.1.15. Reading: The chemiluminescence values (RLU) were measured using Envision.

Assay [1] relates to BRCA wild-type DLD-1 cells. The assay can be described thus: Anti-proliferative activity against cells (CCK8): DLD-1. Type of assay: cell-based. Conditions: Homo sapiens, 72 h + 96 h culture. The method, then:
BRCA wild-type DLD-1 cells were cultured in an RPMI-1640 medium containing 10% fetal bovine serum, 100 U/mL penicillin, and 100 µg/mL streptomycin, and incubated in an incubator with 5% saturated CO2 at 37 °C. When the cells grew to 80% confluence, they were collected, centrifuged at 300 g for 10 min, and then plated onto a 96-well plate at 1000 cells/well. After 24 h, different final concentrations (0 µM, 1 µM, and 10 µM) of PARPi were added, and the cells were cultured for another 72 h. The cells were subjected to medium exchange treatment (re-supplemented with PARPi at the same final concentrations) and then cultured for another 96 h. The 96-well plate was taken out.

T1 sequence (P09874 whole entry): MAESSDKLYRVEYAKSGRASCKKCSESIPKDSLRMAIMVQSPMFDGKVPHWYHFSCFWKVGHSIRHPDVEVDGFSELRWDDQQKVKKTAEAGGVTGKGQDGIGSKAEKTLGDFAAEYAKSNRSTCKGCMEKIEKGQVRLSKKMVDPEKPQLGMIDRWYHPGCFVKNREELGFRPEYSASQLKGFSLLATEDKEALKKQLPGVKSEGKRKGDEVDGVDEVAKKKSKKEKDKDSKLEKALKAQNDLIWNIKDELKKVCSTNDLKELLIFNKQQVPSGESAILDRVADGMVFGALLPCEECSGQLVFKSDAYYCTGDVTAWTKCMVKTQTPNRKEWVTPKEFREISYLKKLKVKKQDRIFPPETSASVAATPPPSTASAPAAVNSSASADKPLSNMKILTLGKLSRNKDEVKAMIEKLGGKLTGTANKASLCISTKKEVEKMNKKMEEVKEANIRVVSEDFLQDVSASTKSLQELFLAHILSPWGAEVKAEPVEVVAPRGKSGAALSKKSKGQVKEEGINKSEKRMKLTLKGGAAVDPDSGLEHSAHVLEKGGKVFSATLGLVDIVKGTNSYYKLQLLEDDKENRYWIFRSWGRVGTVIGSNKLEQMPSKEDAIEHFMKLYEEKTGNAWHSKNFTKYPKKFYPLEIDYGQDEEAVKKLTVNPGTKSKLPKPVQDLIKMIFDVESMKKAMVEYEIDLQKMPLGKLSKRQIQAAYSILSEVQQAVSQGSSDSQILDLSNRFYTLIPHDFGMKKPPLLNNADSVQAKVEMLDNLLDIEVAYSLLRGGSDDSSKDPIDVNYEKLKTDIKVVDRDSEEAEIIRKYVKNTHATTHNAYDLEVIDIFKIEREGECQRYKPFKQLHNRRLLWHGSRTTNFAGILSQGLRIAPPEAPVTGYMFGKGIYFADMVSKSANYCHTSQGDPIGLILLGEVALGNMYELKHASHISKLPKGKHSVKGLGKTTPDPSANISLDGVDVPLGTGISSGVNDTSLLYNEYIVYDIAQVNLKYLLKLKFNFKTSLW

On to `CCc1cc2c([nH]c1=O)CC(CN1CCN(c3ccc(C(=O)NC)nc3C)CC1)CC2` (centres unmarked) [Compound 17, 5-(4-((3-Ethyl-2-oxo-1,2,5,6 ,7,8-hexahydroquinoline-7-yl)methyl)piperazin-1-yl)-N,6-dimethylpicolinamide], for which the IC50 at PARP1 is at most 50 nM.

As to `CCc1cc2c([nH]c1=O)CC(CN1CCN(c3ccc(C(=O)NC4CC4)nc3F)CC1)CC2` (centres unmarked) [Compound 21, N-Cyclopropyl-5-(4-((3-ethyl-2-oxo-1,2,5,6,7,8-hexahydroquinoline-7-yl)methyl)piperazin-1-yl)-6-fluoropicoli namide], the IC50 at PARP1 is at most 50 nM.

On to `CCc1cc2c([nH]c1=O)CC(CN1CC=C(c3ccc(C(=O)NC)nc3)CC1)CC2` (centres unmarked) [Compound 23, 1'-((3-Ethyl-2-oxo-1,2,5,6,7,8-hexahydroquinoline-7-yl)methyl)-N-methyl-1',2',3',6'-tetrahydro-[3,4'-bipyridine]-6-carboxamide], for which the IC50 at PARP1 is at most 50 nM.

As to `CCc1cc2c([nH]c1=O)CC(CN1CCN(c3ccc(C(=O)NC4CC4)nc3)CC1)CC2` (centres unmarked) [Compound 20, N-Cyclopropyl-5-(4-((3-ethyl-2-oxo-1,2,5,6,7,8-hexahydroquinoline-7-yl)methyl)piperazin-1-yl)picolinamide], the IC50 on PARP1 is at most 50 nM.

Regarding `CCc1cc2c([nH]c1=O)CC(CN1CC=C(c3ccc(C(=O)NC4CC4)nc3F)CC1)CC2` (centres unmarked) [Compound 29, N-Cyclopropyl-1'-((3-ethyl-2-oxo-1,2,5,6,7,8-hexahydroquinoline-7-yl)methyl)-2-flu oro-1',2',3',6'-tetrahydro-[3,4 '-bipyridine]-6-carboxamide], at PARP1, the IC50 is at most 50 nM.

As for `CNC(=O)c1ccc(N2CCN(C[C@@H]3Cc4[nH]c(=O)c(C)cc4CO3)CC2)c(Cl)n1` [Example 94, (S)-6-Chloro-N-methyl-5-(4-((3-methyl-2-oxo-1,5,7,8-tetrahydro-2H-pyrano[4,3-b]pyridin-7-yl)methyl)piperazin-1-yl)picolinamide], on PARP1, the IC50 was at most 50 nM.

On to `CCc1nc2c([nH]c1=O)C[C@@H](CN1CCN3c4ccc(C(=O)NC)nc4COC[C@H]3C1)CC2` [Example 105], for which the IC50 on PARP1 was at most 50 nM.

As for `[2H]C([2H])([2H])NC(=O)c1ccc(C2=CCN(CC3CCc4cc(CC)c(=O)[nH]c4C3)CC2)c(F)n1` (centres unmarked) [Compound 27, 1'-((3-Ethyl-2-oxo-1,2,5,6,7,8-hexahydroquinoline-7-yl)methyl)-2-fluoro-N-(methyl-d3)-1',2',3',6'-tetrahydro-[3,4' -bipyridine]-6-carboxamide], the IC50 on PARP1 was at most 50 nM.

`CCc1cc2c([nH]c1=O)CC(CN1CCN(c3ccc(C(=O)NC)nc3)CC1)CC2` (centres unmarked) [Compound 15, 5-(4-((3-Ethyl-2-oxo-1,2,5,6 ,7,8-hexahydroquinoline-7-yl)methyl)piperazin-1-yl)-N-methylpicolinamide]: the IC50 on PARP1 is at most 50 nM.

On to `CCc1cc2c([nH]c1=O)CC(CN1CCN(c3ccc(C(=O)NC)nc3F)C[C@@H]1C)OC2` (stereo partly drawn) [Example 72, 5-((3S)-4-((3-Ethyl-2-oxo-1,5,7,8-tetrahydro-2H-pyrano[4,3-b]pyridin-7-yl)methyl)-3-methylpiperazin-1-yl)-6-fluoro-N-methylpicolinamide], for which, on PARP1, the IC50 was in the range of 50 to 500 nM.

For the compound `[2H]C([2H])([2H])NC(=O)c1ccc(N2CCN(CC3CCc4cc(CC)c(=O)[nH]c4C3)CC2)cn1` (centres unmarked) [Compound 18, 5-(4-((3-Ethyl-2-oxo-1,2,5,6 ,7,8-hexahydroquinoline-7-yl)methyl)piperazin-1-yl)-N-(methyl-d3)picolinamide], the IC50 at PARP1 was at most 50 nM.

Take `CCc1cc2c([nH]c1=O)CC(CN1CC=C(c3ccc(C(=O)NCC(F)F)nc3F)CC1)CC2` (centres unmarked) [Compound 30, N-(2,2-Difluoroethyl)-1'-((3-ethyl-2-oxo-1,2,5,6,7,8-hexahydroquinoline-7-yl)methyl)-2-fluoro-1',2',3',6'-tetrahy dro-[3,4'-bipyridine]-6-carb oxamide]: the IC50 on PARP1 is at most 50 nM.

With `CCc1cc2c([nH]c1=O)CC(CN1CC=C(c3ccc(C(=O)NC4CC4)nc3)CC1)OC2` (centres unmarked) [Compound 8, N-Cyclopropyl-1'-((3-ethyl-2-oxo-1,5,7,8-tetrahydro-2H -pyrano[4,3-b]pyridin-7-yl)methyl)-1',2',3',6'-tetrahydro-[3,4'-bipyridine]-6-carboxamide], the IC50 at PARP1 is at most 50 nM.

In the case of `[2H]C([2H])([2H])NC(=O)c1ccc(N2CCN(CC3CCc4cc(CC)c(=O)[nH]c4C3)CC2)c(F)n1` (centres unmarked) [Compound 19, 5-(4-((3-Ethyl-2-oxo-1,2,5,6 ,7,8-hexahydroquinoline-7-yl)methyl)piperazin-1-yl)-6-fl uoro-N-(methyl-d3)picolinamide], on PARP1, the IC50 is at most 50 nM.

In the case of `CCc1cc2c([nH]c1=O)CC(CN1CC=C(c3ccc(C(=O)NC)nc3C)CC1)CC2` (centres unmarked) [Compound 25, 1'-((3-Ethyl-2-oxo-1,2,5,6,7,8-hexahydroquinoline-7-yl)methyl)-N,2-dimethyl-1',2',3 ',6'-tetrahydro-[3,4'-bipyridine]-6-carboxamide], the IC50 on PARP1 was at most 50 nM.

Regarding `CCc1cc2c([nH]c1=O)CC(CN1CC=C(c3ccc(C(=O)NC4CC4)nc3)CC1)CC2` (centres unmarked) [Compound 28, N-Cyclopropyl-1'-((3-ethyl-2-oxo-1,2,5,6,7,8-hexahydroquinoline-7-yl)methyl)-1',2', 3',6'-tetrahydro-[3,4'-bipyridine]-6-carboxamide], the IC50 on PARP1 is at most 50 nM.

Regarding `CCc1cc2c([nH]c1=O)CC(CN1CCN(c3ccc(C(=O)NC)nc3F)CC1)CC2` (centres unmarked) [Compound 16, 5-(4-((3-Ethyl-2-oxo-1,2,5,6 ,7,8-hexahydroquinoline-7-yl)methyl)piperazin-1-yl)-6-fl uoro-N-methylpicolinamide], the IC50 at PARP1 was at most 50 nM.

Take `CCc1cc2c([nH]c1=O)CC(CN1CC=C(c3ccc(C(=O)NC)nc3F)CC1)CC2` (centres unmarked) [Compound 24, 1'-((3-Ethyl-2-oxo-1,2,5,6,7,8-hexahydroquinoline-7-yl)methyl)-2-fluoro-N-methyl-1',2',3',6'-tetrahydro-[3,4'-bipyridine]-6-carboxamide]: on PARP1, the IC50 is at most 50 nM.

Take `[2H]C([2H])([2H])NC(=O)c1ccc(N2CCN(C([2H])([2H])[C@H]3CCc4nc(C)c(=O)[nH]c4C3)CC2)c(F)n1` [Example 84, (S)-6-Fluoro-N-(methyl-d3)-5-(4-((2-methyl-3-oxo-3,4,5,6,7,8-hexahydroquinoxalin-6-yl)methyl-d2)piperazin-1-yl)picolinamide]: the IC50 in assay [1] is over 1000 nM.

Take `[2H]C([2H])([2H])NC(=O)c1ccc(C2=CCN(CC3CCc4cc(CC)c(=O)[nH]c4C3)CC2)cn1` (centres unmarked) [Compound 26, 1'-((3-Ethyl-2-oxo-1,2,5,6,7,8-hexahydroquinoline-7-yl)methyl)-N-(methyl-d3)-1',2', 3',6'-tetrahydro-[3,4'-bipyridine]-6-carboxamide]: the IC50 on PARP1 was at most 50 nM.

Turning to `CCc1cc2c([nH]c1=O)CC(CN1CC=C(c3ccc(C(=O)NC4CC4)nc3F)CC1)OC2` (centres unmarked) [Compound 7, N-Cyclopropyl-1'-((3-ethyl-2-oxo-1,5,7,8-tetrahydro-2H -pyrano[4,3-b]pyridin-7-yl)methyl)-2-fluoro-1',2',3',6'-tetrahydro-[3,4'-bipyridine]-6-carboxamide], on PARP1, the IC50 is at most 50 nM.

Take `CCc1cc2c([nH]c1=O)CC(CN1CCN(c3ccc(C(=O)NCC(F)F)nc3F)CC1)CC2` (centres unmarked) [Compound 22, N-(2,2-Difluoroethyl)-5-(4-( (3-ethyl-2-oxo-1,2,5,6,7,8-hexahydroquinoline-7-yl)methyl)piperazin-1-yl)-6-fluoro picolinamide]: the IC50 on PARP1 was at most 50 nM.

As to `CCc1cc2c([nH]c1=O)CC(CN1CCN(c3ccc(C(=O)NC)nc3F)C[C@H]1C)OC2` (stereo partly drawn) [Example 75, 5-((3R)-4-((3-Ethyl-2-oxo-1,5,7,8-tetrahydro-2H-pyrano[4,3-b]pyridin-7-yl)methyl)-3-methylpiperazin-1-yl)-6-fluoro-N-methylpicolinamide], the IC50 at PARP1 is 50 to 500 nM.
